Laboratory results from patent US9902722B2, “Biaryl kinase inhibitors” (BRISTOL-MYERS SQUIBB COMPANY, priority 2014, dated 2018).

Each molecule was assayed against GST-Xa-hAAK1 (Homo sapiens (Human), UniProt Q2M2I8) (assay: AAK1 Kinase Assay). Details: bacterially expressed GST-Xa-hAAK1 3.5 nM; ATP 22 μM; peptide substrate 1.5 μM; 3 hours at room temperature; Caliper LabChip 3000.
Format: biochemical
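Also: each compound tested across an eleven-point concentration series, with IC50 obtained through non-linear regression fitting.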

GST-Xa-hAAK1, sequence (Q2M2I8 whole entry): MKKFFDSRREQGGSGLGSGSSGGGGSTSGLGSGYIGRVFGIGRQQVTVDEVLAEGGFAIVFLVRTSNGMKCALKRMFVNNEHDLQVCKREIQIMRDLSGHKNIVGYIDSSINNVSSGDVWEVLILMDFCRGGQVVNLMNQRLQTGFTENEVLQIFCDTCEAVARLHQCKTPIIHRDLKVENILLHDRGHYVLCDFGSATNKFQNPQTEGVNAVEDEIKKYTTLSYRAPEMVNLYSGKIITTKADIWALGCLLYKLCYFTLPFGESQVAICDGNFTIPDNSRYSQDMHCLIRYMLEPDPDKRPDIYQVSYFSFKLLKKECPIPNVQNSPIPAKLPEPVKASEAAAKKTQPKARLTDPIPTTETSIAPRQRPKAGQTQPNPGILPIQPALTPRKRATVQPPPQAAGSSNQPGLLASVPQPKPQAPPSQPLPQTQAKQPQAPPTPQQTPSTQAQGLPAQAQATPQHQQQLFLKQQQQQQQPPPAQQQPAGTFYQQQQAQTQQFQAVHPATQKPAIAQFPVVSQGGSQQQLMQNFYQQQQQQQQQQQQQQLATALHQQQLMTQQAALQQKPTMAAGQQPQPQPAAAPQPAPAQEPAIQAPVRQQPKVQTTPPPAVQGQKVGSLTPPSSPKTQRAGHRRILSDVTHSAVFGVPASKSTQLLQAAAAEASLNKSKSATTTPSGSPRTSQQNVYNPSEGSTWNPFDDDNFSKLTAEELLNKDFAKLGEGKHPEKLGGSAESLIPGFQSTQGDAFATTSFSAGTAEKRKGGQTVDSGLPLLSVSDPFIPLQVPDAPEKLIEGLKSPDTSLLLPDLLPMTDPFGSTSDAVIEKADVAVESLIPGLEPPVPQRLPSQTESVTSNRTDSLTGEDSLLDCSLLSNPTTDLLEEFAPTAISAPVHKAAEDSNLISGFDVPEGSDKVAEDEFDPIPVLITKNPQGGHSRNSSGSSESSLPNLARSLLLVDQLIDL

Compound	IC50 [nM]
CC(C)C[C@](C)(N)COc1cnc(-c2ccnc(C(F)F)c2)cc1C(F)F [Example 124, (S)-1-((2′,4-bis(difluoromethyl)-[2,4′-bipyridin]-5-yl)oxy)-2,4-dimethylpentan-2-amine]	1.2
COC(=O)Nc1cc(-c2cc(C(F)(F)F)c(OC[C@](C)(N)CC(C)C)cn2)ccn1 [Example 166, (R)-methyl (5-((2-amino-2,4-dimethylpentyl)oxy)-4-(trifluoromethyl)-[2,4′-bipyridin]-2′-yl)carbamate]	20
CC(=O)Nc1cc(-c2cc(F)c(OC[C@@H](N)CC(C)C)c(C(F)(F)F)c2)ccn1 [Example 11, (S)—N-(4-(4-((2-amino-4-methylpentyl)oxy)-3-fluoro-5-(trifluoromethyl)phenyl)pyridin-2-yl)acetamide]	3.3
CC(C)C[C@](C)(N)COc1ccc(-c2ccncc2)cc1C(F)(F)F [Example 43, (S)-2,4-dimethyl-1-(4-(pyridin-4-yl)-2-(trifluoromethyl)phenoxy)pentan-2-amine]	0.64
CC(C)C[C@](C)(N)COc1ccc(-c2ccncc2F)cc1C(F)(F)F [Example 47, (S)-1-(4-(3-fluoropyridin-4-yl)-2-(trifluoromethyl)phenoxy)-2,4-dimethylpentan-2-amine]	0.77
CC(C)C[C@](C)(N)COc1ccc(-c2ccnc(C(F)F)c2)cc1C(F)(F)F [Example 35, (S)-1-(4-(2-(difluoromethyl)pyridin-4-yl)-2-(trifluoromethyl)phenoxy)-2,4-dimethylpentan-2-amine]	0.77
Cc1cc(-c2cc(C(F)F)c(OC[C@@](C)(O)CC(C)C)cn2)ccn1 [Example 178, (S)-1-((4-(difluoromethyl)-2′-methyl-[2,4′-bipyridin]-5-yl)oxy)-2,4-dimethylpentan-2-ol]	150
COC(=O)Nc1cc(-c2ccc(OC[C@@](C)(N)CC(C)C)c(C#N)c2)c(F)cn1 [Example 106, (S)-methyl (4-(4-((2-amino-2,4-dimethylpentyl)oxy)-3-cyanophenyl)-5-fluoropyridin-2-yl)carbamate]	0.62
COc1cc(-c2ccnc3ccccc23)cnc1OC[C@@](C)(N)CC(C)C [Example 79, (S)-1-((3-methoxy-5-(quinolin-4-yl)pyridin-2-yl)oxy)-2,4-dimethylpentan-2-amine]	16
Cc1cc(-c2ccnc3cc(F)cc(F)c23)cnc1OC[C@@](C)(N)CC(C)C [Example 224, (S)-1-((5-(5,7-difluoroquinolin-4-yl)-3-methylpyridin-2-yl)oxy)-2,4-dimethylpentan-2-amine]	1.1
CC(C)C[C@](C)(N)COc1ccc(-c2ccnc(F)c2)cc1F [Example 93, (S)-1-(2-fluoro-4-(2-fluoropyridin-4-yl)phenoxy)-2,4-dimethylpentan-2-amine]	33
Cc1cc(-c2cc(C(F)(F)F)c(OC[C@@](C)(N)CC(C)C)cn2)ccn1 [Example 144, (S)-2,4-dimethyl-1-((2′-methyl-4-(trifluoromethyl)-[2,4′-bipyridin]-5-yl)oxy)pentan-2-amine]	1.3
CC(=O)Nc1cccc(-c2ccc(OC[C@](C)(N)CC(C)C)c(C)c2)c1 [Example 251]	1100
CC(C)C[C@](C)(N)COc1ccc(-c2ccnc(F)c2F)cc1C(F)(F)F [Example 42, (S)-1-(4-(2,3-difluoropyridin-4-yl)-2-(trifluoromethyl)phenoxy)-2,4-dimethylpentan-2-amine]	3.3
CC(C)C[C@](C)(N)COc1ccc(-c2ccnc3ccccc23)cc1S(C)(=O)=O [Example 115, (S)-2,4-dimethyl-1-(2-(methylsulfonyl)-4-(quinolin-4-yl)phenoxy)pentan-2-amine]	13
Cc1c(-c2ccc(OC[C@@](C)(N)CC(C)C)c(C(F)(F)F)c2)ccnc1F [Example 41, (S)-1-(4-(2-fluoro-3-methylpyridin-4-yl)-2-(trifluoromethyl)phenoxy)-2,4-dimethylpentan-2-amine]	3.8
CC(C)C[C@](C)(N)COc1ccc(-c2ccnc(C(F)F)c2)cc1C(F)F [Example 37, (S)-1-(2-(difluoromethyl)-4-(2-(difluoromethyl)pyridin-4-yl)phenoxy)-2,4-dimethylpentan-2-amine]	0.51
CC(C)C[C@](C)(O)COc1cnc(-c2ccnc3ccccc23)cc1C(F)F [Example 176, (S)-1-((4-(difluoromethyl)-6-(quinolin-4-yl)pyridin-3-yl)oxy)-2,4-dimethylpentan-2-ol]	53
COC(=O)Nc1cc(-c2ccc(OC[C@](C)(N)CC(C)C)c(C)n2)ccn1 [Example 173, (R)-methyl (5-((2-amino-2,4-dimethylpentyl)oxy)-6-methyl-[2,4′-bipyridin]-2′-yl)carbamate]	42
COC(=O)Nc1cc(-c2ccc(OC[C@](N)(CF)CC(C)C)c(C(F)F)n2)ccn1 [Example 179, (S)-methyl (5-((2-amino-2-(fluoromethyl)-4-methylpentyl)oxy)-6-(difluoromethyl)-[2,4′-bipyridin]-2′-yl)carbamate]	2
CCc1cc(-c2cc(C(F)F)c(OC[C@](C)(N)CC(C)C)cn2)ccn1 [Example 170, (R)-1-((4-(difluoromethyl)-2′-ethyl-[2,4′-bipyridin]-5-yl)oxy)-2,4-dimethylpentan-2-amine]	285
COC(=O)Nc1cc(-c2ccc(OC[C@@](C)(N)CC(C)C)c(S(C)(=O)=O)c2)ccn1 [Example 113, (S)-methyl (4-(4-((2-amino-2,4-dimethylpentyl)oxy)-3-(methylsulfonyl)phenyl)pyridin-2-yl)carbamate]	43
CC(C)C[C@](C)(N)COc1ccc(-c2ccnc(F)c2)cc1C#N [Example 94, (S)-2-((2-amino-2,4-dimethylpentyl)oxy)-5-(2-fluoropyridin-4-yl)benzonitrile]	4.7

Continued, values first:

IC50 [nM]	Compound
3.5	CC(C)C[C@](C)(N)COc1ccc(-c2ccnc3cc(F)ccc23)nc1C(F)F [Example 128, (S)-1-((2-(difluoromethyl)-6-(7-fluoroquinolin-4-yl)pyridin-3-yl)oxy)-2,4-dimethylpentan-2-amine]
10	CC(C)C[C@](C)(N)COc1ncc(-c2ccnc3ccccc23)cc1F [Example 98, (S)-1-((3-fluoro-5-(quinolin-4-yl)pyridin-2-yl)oxy)-2,4-dimethylpentan-2-amine]
0.53	CC(C)C[C@](C)(N)COc1ccc(-c2ccnc3cc(F)cc(F)c23)cc1C(F)(F)F [Example 72, (S)-1-(4-(5,7-difluoroquinolin-4-yl)-2-(trifluoromethyl)phenoxy)-2,4-dimethylpentan-2-amine]
27	Cc1nc(-c2ccnc3cc(F)ccc23)ccc1OC[C@@](C)(N)CC(C)C [Example 137, (S)-1-((6-(7-fluoroquinolin-4-yl)-2-methylpyridin-3-yl)oxy)-2,4-dimethylpentan-2-amine]
6.2	CC(C)C[C@](C)(N)COc1ccc(-c2ccnc3ccc(F)cc23)nc1C(F)F [Example 127, (S)-1-((2-(difluoromethyl)-6-(6-fluoroquinolin-4-yl)pyridin-3-yl)oxy)-2,4-dimethylpentan-2-amine]
0.77	Cc1nccc(-c2ccc(OC[C@@](C)(N)CC(C)C)c(C(F)F)n2)n1 [Example 139, (S)-1-((2-(difluoromethyl)-6-(2-methylpyrimidin-4-yl)pyridin-3-yl)oxy)-2,4-dimethylpentan-2-amine]
1	COC(=O)Nc1cc(-c2ccc(OC[C@@](C)(N)CC(C)C)c(C(F)F)n2)ccn1 [Example 117, (S)-methyl (5-((2-amino-2,4-dimethylpentyl)oxy)-6-(difluoromethyl)-[2,4′-bipyridin]-2′-yl)carbamate]
0.88	Cc1cc(-c2ccnc3ccc(F)cc23)cnc1OC[C@@](C)(N)CC(C)C [Example 223, (S)-1-((5-(6-fluoroquinolin-4-yl)-3-methylpyridin-2-yl)oxy)-2,4-dimethylpentan-2-amine]
1.5	CC(C)C[C@](C)(N)COc1ccc(-c2ccnc(Cl)c2F)nc1C(F)F [Example 159, (S)-1-((2′-chloro-6-(difluoromethyl)-3′-fluoro-[2,4′-bipyridin]-5-yl)oxy)-2,4-dimethylpentan-2-amine]
1.4	CC(C)C[C@](C)(N)COc1cnc(-c2ccnc3cc(F)cc(F)c23)cc1C(F)F [Example 130, (S)-1-((4-(difluoromethyl)-6-(5,7-difluoroquinolin-4-yl)pyridin-3-yl)oxy)-2,4-dimethylpentan-2-amine]
0.85	Cc1cc(-c2ccnc3ccccc23)ncc1OC[C@@](C)(N)CC(C)C [Example 82, (S)-2,4-dimethyl-1-((4-methyl-6-(quinolin-4-yl)pyridin-3-yl)oxy)pentan-2-amine]
0.86	CC(C)C[C@](C)(N)COc1cnc(-c2ccnc3cc(F)ccc23)cc1Cl [Example 241, (S)-1-((4-chloro-6-(7-fluoroquinolin-4-yl)pyridin-3-yl)oxy)-2,4-dimethylpentan-2-amine]
1.9	CC(C)C[C@](C)(N)COc1cnc(-c2ccnc3cc(C(F)(F)F)ccc23)cc1Cl [Example 242, (S)-1-((4-chloro-6-(7-(trifluoromethyl)quinolin-4-yl)pyridin-3-yl)oxy)-2,4-dimethylpentan-2-amine]
26	CC(C)C[C@@](C)(N)COc1ncc(-c2ccnc3ccccc23)cc1C(F)F [Example 246, (R)-1-((3-(difluoromethyl)-5-(quinolin-4-yl)pyridin-2-yl)oxy)-2,4-dimethylpentan-2-amine]
0.83	CC(C)C[C@](C)(N)COc1ccc(-c2ccnc3ccccc23)cc1C#N [Example 104, (S)-2-((2-amino-2,4-dimethylpentyl)oxy)-5-(quinolin-4-yl)benzonitrile]
2.3	CC(C)C[C@](C)(N)COc1ccc(-c2ccnc3cc(C(F)(F)F)ccc23)cc1C(F)(F)F [Example 70, (S)-2,4-dimethyl-1-(2-(trifluoromethyl)-4-(7-(trifluoromethyl)quinolin-4-yl)phenoxy)pentan-2-amine]
